The text below walks through data of US20090061416A1, “Surfaces and methods for biosensor cellular assays” (priority 2007, published 2009).

The subject of assay [1] is CHO-KCNQ cells. The experiment in a line: ATP-induced DMR signals of CHO-KCNQ cells on RWG biosensor. It counts as cell-based, Chinese hamster. The procedure:
Referring to the Figures, FIGS. 1A and 1B show cross-sectional configurations of two examples of RWG biosensors used for living cell sensing. In FIG. 1A a cell (10) is directly cultured onto the unmodified or bare surface of the waveguide thin film (15) of a RWG biosensor (18) having a waveguide grating atop a substrate. In FIG. 1B a cell (10) is cultured onto the surface of an inorganic thin film (19) which has been previously deposited onto the surface of the waveguide thin film (15). Here a thin film of silicon oxide of about 1 nm to about 5 nm is directly deposited onto the surface of a waveguide thin film of niobium oxide by vapor deposition method. Each biosensor associated cell has an approximate penetration depth (20). […] CHO-KCNQ is an engineered CHO cell having over-expressed a potassium ion channel KCNQ2. FIGS. 2A and 2B compare the ATP-induced DMR signals, response units versus time, of CHO-KCNQ cells: The FIG. 2A cells were cultured on an unmodified or bare niobia surface of the waveguide thin film of a Corning® Epic™ RWG biosensor; and FIG. 2B cells were cultured on a biosensor having, for example, a discontinuous thin film modified waveguide surface of silicon dioxide particles. […]

The subject of assay [2] is endogenous P2Y receptors in HEK 293 cells. The experiment in a line: ATP-induced DMR signals of HEK293 cells on coated RWG biosensor surfaces. It counts as cell-based, human. An excerpt:
Three surface densities were individually prepared by slow evaporation of 0.0015%, 0.1% and 1.5 weight % gelatin solutions, as described above, covering the biosensor surfaces. The resultant respective gelatin surfaces were referred to as low-, medium-, and high-density gelatin surfaces, respectively. HEK293 cells were separately cultured onto these surfaces.
P2Y receptors belong to the family of G protein-coupled receptors. HEK 293 cells endogenously express several isoforms of P2Y receptors. […] The arrow (540) indicates when the stimulus, an ATP solution, was introduced.
FIGS. 6A and 6B show the reproducibility and robustness of a cell assay of the disclosure using HEK293 cells that were cultured on a low-density gelatin-coated 384-well Epic™ biosensor microplate. A 10 micromolar ATP solution was added to selected well of column 15 of the microplate. The ATP-induced DMR response signals within one column (16 wells) were recorded in real time in seconds and plotted in FIG. 6A. The amplitudes of the initial positive DMR (P-DMR) event (wavelength shift) of the ATP-induced DMR signals were plotted as a function of well numbers 1-16 in FIG. 6B. The assay Coefficient of Variability (CV), or reproducibility, was about 4%, indicating a relatively high reproducibility, with an average signal of 193 picometers (pm), and a standard deviation of 8 pm.
To covalently couple RGD-like peptides to the biosensor surface, the biosensor was coated sequentially with a thin layer of silicon oxide (about 3 nm), aminopropylsilane (about 1-3 nm), poly(ethylene-alt-maleic anhydride) (EMA) (forming polymeric clusters), and finally a RGD-like peptide (Gly-Arg-Gly-Asp-Ser, GRGDS). Specifically, a thin layer of silicon oxide was deposited onto the Corning Epic™ niobium oxide waveguide surface up to 3 nm. Afterwards, the biosensor was coated with an aminopropylsilane solution of about 0.1 vol/vol %, washed and dried, followed by the interaction with an EMA solution of about 0.01 wt/vol %, and washed and dried. Finally, a GRGDS solution was applied to the EMA biosensor surface. […]

Assay [3] relates to intracellular protein kinase C (PKC) in Jurkat cells. The experiment in a line: pseudo-RACK1-induced optical signals of Jurkat cells anchored on RWG biosensor surfaces. It counts as cell-based, human. An excerpt: The Jurkat cells, which present antigens at the cell's surface, were contacted with four different surface types: a bare waveguide substrate having a thin layer of silicon oxide (i.e., SiOx/Nb2O5, uncoated biosensor substrate) (810), a SiOx/Nb2O5 surface having anti-human CD3 (anti-CD3) (820), a SiOx/Nb2O5 surface having amino-reactive polymer EMA coating (EMA) (830), and a SiOx/Nb2O5 surface having covalently coupled anti-human CD3 (i.e., anti-CD3-EMA) (840). The anti-CD3 surface was achieved by incubating a solution containing anti-human CD3 antibody (25 μg/ml) onto the bare SiOx/Nb2O5 surface for 1 hour, followed by washing and drying. The EMA surface was prepared as described above, i.e., by sequentially coating the bare SiOx/Nb2O5 surface with aminopropylsilane and then EMA. The anti-CD3/EMA surface was prepared by incubating anti-human CD3 (25 μg/ml) solution with the EMA surface for 1 hour, followed by blocking with ethanolamine at 1% for 1 hour. The Jurkat cells were incubated on either surface for about 2 hours before assays. The kinetic response, before and after the pseudo-RACK1 addition, was recorded in real time.
Pseudo-RACK1 is a peptide (OH-lys-lys-trp-lys-met-arg-arg-asn-gln-phe-trp-ile-lys-ile-gln-arg-cys----cys-ser-val-glu-ile-trp-asp-OH) and activates intracellular protein kinase C (PKC).

As for `Nc1ncnc2c1ncn2[C@@H]1O[C@H](COP(=O)(O)OP(=O)(O)OP(=O)(O)O)[C@@H](O)[C@H]1O` [ATP, adenosine triphosphate], the “ATP-induced DMR signal, average signal” value in assay [1] (CHO-KCNQ cells cultured on discontinuous thin film of silicon dioxide particles on waveguide (FIG. 2B)) came to 144 pm; in assay [1] (CHO-KCNQ cells cultured on unmodified or bare niobia waveguide surface (FIG. 2A)), 115 pm. Also, the “amplitude of initial positive DMR (P-DMR) event, average signal” value in assay [2] (10 micromolar ATP, HEK293 cells on low-density gelatin-coated 384-well Epic microplate, 16 wells (FIG. 6)) was 193 picometers (pm). Moreover, in assay [2] (20 micromolar ATP, HEK293 cells on GRGDS-derivatized EMA surfaces made with 10, 30, 100, 250 micromolar GRGDS (FIG. 7)), the “ATP-induced DMR response intensity” value is “increasing response intensity”. The “detection of ATP-induced DMR signals” value in assay [2] (HEK293 cells on low-, medium- and high-density gelatin-coated surfaces (FIG. 5)) was “Only the low-density gelatin-coated surface enabled the detection”.
“OH-lys-lys-trp-lys-met-arg-arg-asn-gln-phe-trp-ile-lys-ile-gln-arg-cys----cys-ser-val-glu-ile-trp-asp-OH [pseudo-RACK1]”: the “optical signal after stimulation” value in assay [3] (9 μM, Jurkat cells on anti-CD3, EMA and anti-CD3-EMA surfaces (FIG. 8A)) is on record as “significant optical signals”; in assay [3] (Jurkat cells on bare SiOx/Nb2O5 surface (FIG. 8A)), “did not led to any detectable optical signal”.
